Results from patent EP4707277A1, “NOVEL HETEROCYCLIC AMINE DERIVATIVES AND PHARMACEUTICAL COMPOSITION COMPRISING SAME” (Daewoong Pharmaceutical Co., Ltd., priority 2023, dated 2024).

What was measured:
ITK = molecular target: T1, ITK (Homo sapiens, UniProt Q08881); experiment: Inhibitory activity against ITK, ADP-Glo Kinase system (Promega); type: biochemical; conditions: 1mM ATP; read-out: ITK IC50(nM) 1mM ATP
T1 construct: purchased Signalchem I13-11G-10
T1 sequence (Q08881 1-620): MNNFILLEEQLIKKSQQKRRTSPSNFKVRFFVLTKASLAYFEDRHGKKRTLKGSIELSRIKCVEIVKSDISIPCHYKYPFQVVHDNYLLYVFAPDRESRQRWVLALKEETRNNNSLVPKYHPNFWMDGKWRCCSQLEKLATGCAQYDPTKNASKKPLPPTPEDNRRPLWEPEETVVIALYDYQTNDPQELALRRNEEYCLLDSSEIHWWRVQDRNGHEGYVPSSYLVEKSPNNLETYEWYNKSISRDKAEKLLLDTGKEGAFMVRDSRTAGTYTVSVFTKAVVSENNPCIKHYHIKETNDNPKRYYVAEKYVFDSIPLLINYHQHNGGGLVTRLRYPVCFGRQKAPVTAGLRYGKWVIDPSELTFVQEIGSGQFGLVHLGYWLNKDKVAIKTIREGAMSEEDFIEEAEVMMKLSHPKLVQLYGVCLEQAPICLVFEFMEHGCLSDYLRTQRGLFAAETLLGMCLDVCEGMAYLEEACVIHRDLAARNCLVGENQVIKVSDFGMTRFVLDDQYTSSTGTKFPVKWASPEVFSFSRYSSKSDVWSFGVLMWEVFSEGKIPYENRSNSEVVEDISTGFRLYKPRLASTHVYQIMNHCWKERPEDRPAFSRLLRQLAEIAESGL
In short: (§1)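 IC50 values were fitted from kinase reactions run for 1 h at 30°C with either 1 mM ATP or ATP at Km (10 µM for BTK, 25 µM for ITK). Reactions used 0.2 µg/µl poly(Glu4,Tyr1), recombinant human enzyme (BTK 10 ng, ITK 4 ng per reaction) in Tris pH 7.5 Mn/Mg buffer with 1% DMSO. ADP formed was read by ADP-Glo luminescence.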

BTK = molecular target: T2, BTK (Homo sapiens, UniProt Q06187); experiment: Inhibitory activity against BTK, ADP-Glo Kinase system (Promega); type: biochemical; conditions: 1mM ATP; read-out: BTK IC50(nM) 1mM ATP
T2 construct: purchased Signalchem B10-10H
T2 sequence (Q06187 whole entry): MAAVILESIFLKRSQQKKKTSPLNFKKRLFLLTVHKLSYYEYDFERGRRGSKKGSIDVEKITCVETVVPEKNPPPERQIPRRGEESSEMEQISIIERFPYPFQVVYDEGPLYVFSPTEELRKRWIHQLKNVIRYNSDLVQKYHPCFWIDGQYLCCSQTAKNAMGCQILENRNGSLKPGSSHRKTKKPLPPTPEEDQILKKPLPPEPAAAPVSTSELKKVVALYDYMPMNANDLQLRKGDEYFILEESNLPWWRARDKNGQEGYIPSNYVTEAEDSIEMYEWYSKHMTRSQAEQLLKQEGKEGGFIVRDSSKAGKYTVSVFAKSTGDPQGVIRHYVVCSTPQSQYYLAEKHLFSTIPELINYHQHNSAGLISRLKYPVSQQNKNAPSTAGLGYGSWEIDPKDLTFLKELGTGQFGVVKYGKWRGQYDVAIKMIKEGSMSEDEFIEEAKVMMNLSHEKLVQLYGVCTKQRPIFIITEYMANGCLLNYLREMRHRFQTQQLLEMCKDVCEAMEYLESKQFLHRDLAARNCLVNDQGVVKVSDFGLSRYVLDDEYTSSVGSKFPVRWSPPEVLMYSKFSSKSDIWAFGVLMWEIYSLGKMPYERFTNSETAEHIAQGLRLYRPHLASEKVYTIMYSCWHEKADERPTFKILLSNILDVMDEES
In short: as §1

Q: For C=CC(=O)N1CCC[C@H](Oc2nc(Nc3ncc(C)s3)cc3c2ccn3CC(C)C)C1 [Example 150, (S)-1-(3-((1-isobutyl-6-((5-methylthiazol-2-yl)amino)-1H-pyrrolo[3,2-c]pyridin-4-yl)oxy)piperidin-1-yl)prop-2-en-1-one], which IC50 (ITK) is on record?
A: The IC50 was 20 to 100 nM.

Q: And the IC50 (BTK)?
A: The IC50 was no more than 20 nM.

Q: With C=CC(=O)N1CCC[C@H](Oc2nc(Nc3ncc(C)s3)cc3c2ccn3C2CCCC2)C1 [Example 151, (S)-1-(3-((1-cyclopentyl-6-((5-methylthiazol-2-yl)amino)-1H-pyrrolo[3,2-c]pyridin-4-yl)oxy)piperidin-1-yl)prop-2-en-1-one] as the molecule, how does the IC50 (ITK) read?
A: The IC50 was 20 to 100 nM.

Q: And the IC50 (BTK)?
A: Its IC50 is no more than 20 nM.

Q: With C=CC(=O)N1C[C@H](F)[C@H](Oc2nc(Nc3ncc(C)s3)cc3c2ccn3CC)C1 [Example 152, 1-((3R,4S)-3-((1-ethyl-6-((5-methylthiazol-2-yl)amino)-1H-pyrrolo[3,2-c]pyridin-4-yl)oxy)-4-fluoropyrrolidin-1-yl)prop-2-en-1-one] as the molecule, how does the IC50 (ITK) read?
A: The IC50 was no more than 20 nM.

Q: What about the IC50 (BTK) of the same molecule?
A: The IC50 was no more than 20 nM.

Q: With C=CC(=O)N1CCC[C@H](Oc2nc(Nc3ncc(C)s3)cc3c2ccn3CC)C1 [Example 153, (S)-1-(3-((1-ethyl-6-((5-methylthiazol-2-yl)amino)-1H-pyrrolo[3,2-c]pyridin-4-yl)oxy)piperidin-1-yl)prop-2-en-1-one] as the molecule, how does the IC50 (ITK) read?
A: The IC50 was 20 to 100 nM.

Q: What about the IC50 (BTK) of the same molecule?
A: The IC50 was no more than 20 nM.

Q: With C=CC(=O)N1C[C@@H](F)[C@H](Oc2nc(Nc3ncc(C)s3)cc3c2ccn3CC)C1 [Example 154, 1-((3R,4R)-3-((1-ethyl-6-((5-methylthiazol-2-yl)amino)-1H-pyrrolo[3,2-c]pyridin-4-yl)oxy)-4-fluoropyrrolidin-1-yl)prop-2-en-1-one] as the molecule, how does the IC50 (ITK) read?
A: The IC50 was no more than 20 nM.

Q: What about the IC50 (BTK) of the same molecule?
A: The IC50 was no more than 20 nM.

Q: Which IC50 (ITK) does the source give for C=CC(=O)N1CC(C)(Oc2nc(Nc3ncc(C)s3)cc3c2ccn3CC)C1 [Example 155, 1-(3-((1-ethyl-6-((5-methylthiazol-2-yl)amino)-1H-pyrrolo[3,2-c]pyridin-4-yl)oxy)-3-methylazetidin-1-yl)prop-2-en-1-one] here?
A: The IC50 was 20 to 100 nM.

Q: What about the IC50 (BTK) of the same molecule?
A: Its IC50 is no more than 20 nM.

Q: How did the IC50 (ITK) turn out when C=CC(=O)N1CC[C@@H](Oc2nc(Nc3ncc(C)s3)cc3c2ccn3C)C1 [Example 156, (R)-1-(3-((1-methyl-6-((5-methylthiazol-2-yl)amino)-1H-pyrrolo[3,2-c]pyridin-4-yl)oxy)pyrrolidin-1-yl)prop-2-en-1-one] was run?
A: Its IC50 is greater than 500 nM.

Q: What about the IC50 (BTK) of the same molecule?
A: Its IC50 is greater than 500 nM.

Q: Which results are given for C=CC(=O)N1C[C@@H](F)[C@H](Oc2nc(Nc3ncc(C)s3)cc3c2ccn3C)C1 [Example 157, 1-((3R,4R)-3-fluoro-4-((1-methyl-6-((5-methylthiazol-2-yl)amino)-1H-pyrrolo[3,2-c]pyridin-4-yl)oxy)pyrrolidin-1-yl)prop-2-en-1-one]?
A: IC50 (ITK): ≤ 20 nM; IC50 (BTK): ≤ 20 nM

Q: With C=CC(=O)N1CCC[C@H](Oc2nc(Nc3ncc(C)s3)cc3c2ccn3C)C1 [Example 158, (S)-1-(3-((1-methyl-6-((5-methylthiazol-2-yl)amino)-1H-pyrrolo[3,2-c]pyridin-4-yl)oxy)piperidin-1-yl)prop-2-en-1-one] as the molecule, how does the IC50 (ITK) read?
A: The IC50 was 20 to 100 nM.

Q: What about the IC50 (BTK) of the same molecule?
A: Its IC50 is no more than 20 nM.

Q: With C=CC(=O)N1C[C@H](F)[C@H](Oc2nc(Nc3ncc(C)s3)cc3c2ccn3CCC)C1 [Example 159, 1-((3S,4R)-3-fluoro-4-((6-((5-methylthiazol-2-yl)amino)-1-propyl-1H-pyrrolo[3,2-c]pyridin-4-yl)oxy)pyrrolidin-1-yl)prop-2-en-1-one] as the molecule, how does the IC50 (ITK) read?
A: Its IC50 is no more than 20 nM.

Q: And the IC50 (BTK)?
A: Its IC50 is no more than 20 nM.

Q: What does the source list for C=CC(=O)N1CCC[C@H](Oc2nc(Nc3ncc(C)s3)cc3c2ccn3CCC)C1 [Example 160, (S)-1-(3-((6-((5-methylthiazol-2-yl)amino)-1-propyl-1H-pyrrolo[3,2-c]pyridin-4-yl)oxy)piperidin-1-yl)prop-2-en-1-one]?
A: IC50 (ITK): 100 to 500 nM; IC50 (BTK): 100 to 500 nM

Q: For C=CC(=O)N1C[C@@H](F)[C@H](Oc2nc(Nc3ncc(C)s3)cc3c2ccn3CCC)C1 [Example 161, 1-((3R,4R)-3-fluoro-4-((6-((5-methylthiazol-2-yl)amino)-1-propyl-1H-pyrrolo[3,2-c]pyridin-4-yl)oxy)pyrrolidin-1-yl)prop-2-en-1-one], which IC50 (ITK) is on record?
A: The IC50 was no more than 20 nM.

Q: And the IC50 (BTK)?
A: The IC50 was no more than 20 nM.

Q: For C=CC(=O)N1CC[C@@H](Oc2nc(Nc3ncc(C)s3)cc3c2ccn3C(C)C)C1 [Example 162, (R)-1-(3-((1-isopropyl-6-((5-methylthiazol-2-yl)amino)-1H-pyrrolo[3,2-c]pyridin-4-yl)oxy)pyrrolidin-1-yl)prop-2-en-1-one], which IC50 (ITK) is on record?
A: The IC50 was greater than 500 nM.

Q: And the IC50 (BTK)?
A: Its IC50 is greater than 500 nM.

Q: With C=CC(=O)N1CC(C)(Oc2nc(Nc3ncc(C)s3)cc3c2ccn3C(C)C)C1 [Example 163, 1-(3-((1-isopropyl-6-((5-methylthiazol-2-yl)amino)-1H-pyrrolo[3,2-c]pyridin-4-yl)oxy)-3-methylazetidin-1-yl)prop-2-en-1-one] as the molecule, how does the IC50 (ITK) read?
A: The IC50 was no more than 20 nM.

Q: And the IC50 (BTK)?
A: The IC50 was no more than 20 nM.

Q: C=CC(=O)N1C[C@@H](Oc2nc(Nc3ncc(C)s3)cc3c2ccn3C2CCCC2)C[C@@H]1C [Example 164, 1-((2S,4S)-4-((1-cyclopentyl-6-((5-methylthiazol-2-yl)amino)-1H-pyrrolo[3,2-c]pyridin-4-yl)oxy)-2-methylpyrrolidin-1-yl)prop-2-en-1-one] was tested. Which IC50 (ITK) did it give?
A: The IC50 was 100 to 500 nM.

Q: What about the IC50 (BTK) of the same molecule?
A: Its IC50 is 20 to 100 nM.

Q: C=CC(=O)N1CC(C)(Oc2nc(Nc3ncc(C)s3)cc3c2ccn3C2CCCC2)C1 [Example 165, 1-(3-((1-cyclopentyl-6-((5-methylthiazol-2-yl)amino)-1H-pyrrolo[3,2-c]pyridin-4-yl)oxy)-3-methylazetidin-1-yl)prop-2-en-1-one] was tested. Which IC50 (ITK) did it give?
A: The IC50 was no more than 20 nM.

Q: And the IC50 (BTK)?
A: Its IC50 is no more than 20 nM.

Q: With C=CC(=O)N1CC(C)(Oc2nc(Nc3ncc(C)s3)cc3c2ccn3C)C1 [Example 166, 1-(3-methyl-3-((1-methyl-6-((5-methylthiazol-2-yl)amino)-1H-pyrrolo[3,2-c]pyridin-4-yl)oxy)azetidin-1-yl)prop-2-en-1-one] as the molecule, how does the IC50 (ITK) read?
A: The IC50 was no more than 20 nM.

Q: What about the IC50 (BTK) of the same molecule?
A: Its IC50 is no more than 20 nM.

Q: Which IC50 (ITK) does the source give for C=CC(=O)N1CC(C)(Oc2nc(Nc3ncc(C)s3)cc3c2ccn3CC2CC2)C1 [Example 167, 1-(3-((1-(cyclopropylmethyl)-6-((5-methylthiazol-2-yl)amino)-1H-pyrrolo[3,2-c]pyridin-4-yl)oxy)-3-methylazetidin-1-yl)prop-2-en-1-one] here?
A: Its IC50 is no more than 20 nM.

Q: And the IC50 (BTK)?
A: Its IC50 is no more than 20 nM.

Q: Which results are given for C=CC(=O)N1CC(C)(Oc2nc(Nc3ncc(C)s3)cc3c2ccn3CCOC)C1 [Example 168, 1-(3-((1-(2-methoxyethyl)-6-((5-methylthiazol-2-yl)amino)-1H-pyrrolo[3,2-c]pyridin-4-yl)oxy)-3-methylazetidin-1-yl)prop-2-en-1-one]?
A: IC50 (ITK): > 500 nM; IC50 (BTK): > 500 nM

Q: C=CC(=O)N1CCC[C@H](Oc2nc(Nc3ncc(C)s3)cc3c2ccn3CC2CCCC2)C1 [Example 169, (S)-1-(3-((1-(cyclopentylmethyl)-6-((5-methylthiazol-2-yl)amino)-1H-pyrrolo[3,2-c]pyridin-4-yl)oxy)piperidin-1-yl)prop-2-en-1-one] was tested. Which IC50 (ITK) did it give?
A: Its IC50 is 20 to 100 nM.

Q: And the IC50 (BTK)?
A: Its IC50 is no more than 20 nM.

Q: How did the IC50 (ITK) turn out when C=CC(=O)N1C[C@@H](F)[C@H](Oc2nc(Nc3ncc(C)s3)cc3c2ccn3CC2CCCC2)C1 [Example 170, 1-((3R,4R)-3-((1-(cyclopentylmethyl)-6-((5-methylthiazol-2-yl)amino)-1H-pyrrolo[3,2-c]pyridin-4-yl)oxy)-4-fluoropyrrolidin-1-yl)prop-2-en-1-one] was run?
A: Its IC50 is no more than 20 nM.

Q: What about the IC50 (BTK) of the same molecule?
A: The IC50 was no more than 20 nM.

Q: What does the source list for C=CC(=O)N1C[C@H](F)[C@H](Oc2nc(Nc3ncc(C)s3)cc3c2ccn3CC(C)CC)C1 (stereo partly drawn) [Example 171, 1-((3S,4R)-3-fluoro-4-((1-(2-methylbutyl)-6-((5-methylthiazol-2-yl)amino)-1H-pyrrolo[3,2-c]pyridin-4-yl)oxy)pyrrolidin-1-yl)prop-2-en-1-one]?
A: IC50 (ITK): ≤ 20 nM; IC50 (BTK): ≤ 20 nM

Q: With C=CC(=O)N1CCC[C@H](Oc2nc(Nc3ncc(C)s3)cc3c2ccn3CC(C)CC)C1 (stereo partly drawn) [Example 172, 1-((3S)-3-((1-(2-methylbutyl)-6-((5-methylthiazol-2-yl)amino)-1H-pyrrolo[3,2-c]pyridin-4-yl)oxy)piperidin-1-yl)prop-2-en-1-one] as the molecule, how does the IC50 (ITK) read?
A: Its IC50 is 20 to 100 nM.

Q: What about the IC50 (BTK) of the same molecule?
A: The IC50 was no more than 20 nM.

Q: How did the IC50 (ITK) turn out when C=CC(=O)N1C[C@@H](F)[C@H](Oc2nc(Nc3ncc(C)s3)cc3c2ccn3CC(C)CC)C1 (stereo partly drawn) [Example 173, 1-((3R,4R)-3-fluoro-4-((1-(2-methylbutyl)-6-((5-methylthiazol-2-yl)amino)-1H-pyrrolo[3,2-c]pyridin-4-yl)oxy)pyrrolidin-1-yl)prop-2-en-1-one] was run?
A: The IC50 was no more than 20 nM.

Q: What about the IC50 (BTK) of the same molecule?
A: Its IC50 is no more than 20 nM.

Q: Which results are given for C=CC(=O)N1C[C@@H](F)[C@H](Oc2nc(Nc3ncc(C)s3)cc3c2ccn3C[C@H](C)CC)C1 [Example 174, 1-((3R,4R)-3-fluoro-4-((1-((R)-2-methylbutyl)-6-((5-methylthiazol-2-yl)amino)-1H-pyrrolo[3,2-c]pyridin-4-yl)oxy)pyrrolidin-1-yl)prop-2-en-1-one]?
A: IC50 (ITK): ≤ 20 nM; IC50 (BTK): ≤ 20 nM
